Assay results taken from patent US20240366589A1, “NHE3-BINDING COMPOUNDS AND METHODS FOR INHIBITING PHOSPHATE TRANSPORT” (Ardelyx, Inc., priority 2013, published 2024).

Legend:
Rat NHE3 = target: T1, Rat NHE3 (Rattus norvegicus, UniProt P26433); experiment: Cell-based NHE3 activity under prompt conditions (OK cells, BCECF pH recovery), rat NHE3; conditions: prompt conditions
T1 construct: expressed in transfected cells; host or cells: Opossum kidney (OK) cells (ATCC), electroporation
In short: (§1)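 Read-out: initial rate of BCECF-reported intracellular pH recovery via Na+/H+ antiport, fitted to pIC50. Opossum kidney cells transfected with rat or human NHE3; NH4Cl prepulse with 5 μM BCECF-AM, 30 min RT; Na+-free choline buffer 10 min.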

Human NHE3 = target: T2, Human NHE3 (Homo sapiens, UniProt P48764); experiment: Cell-based NHE3 activity under prompt conditions (OK cells, BCECF pH recovery), human NHE3; conditions: prompt conditions
T2 construct: expressed in transfected cells; host or cells: Opossum kidney (OK) cells (ATCC), electroporation
T2 sequence (P48764 26-834): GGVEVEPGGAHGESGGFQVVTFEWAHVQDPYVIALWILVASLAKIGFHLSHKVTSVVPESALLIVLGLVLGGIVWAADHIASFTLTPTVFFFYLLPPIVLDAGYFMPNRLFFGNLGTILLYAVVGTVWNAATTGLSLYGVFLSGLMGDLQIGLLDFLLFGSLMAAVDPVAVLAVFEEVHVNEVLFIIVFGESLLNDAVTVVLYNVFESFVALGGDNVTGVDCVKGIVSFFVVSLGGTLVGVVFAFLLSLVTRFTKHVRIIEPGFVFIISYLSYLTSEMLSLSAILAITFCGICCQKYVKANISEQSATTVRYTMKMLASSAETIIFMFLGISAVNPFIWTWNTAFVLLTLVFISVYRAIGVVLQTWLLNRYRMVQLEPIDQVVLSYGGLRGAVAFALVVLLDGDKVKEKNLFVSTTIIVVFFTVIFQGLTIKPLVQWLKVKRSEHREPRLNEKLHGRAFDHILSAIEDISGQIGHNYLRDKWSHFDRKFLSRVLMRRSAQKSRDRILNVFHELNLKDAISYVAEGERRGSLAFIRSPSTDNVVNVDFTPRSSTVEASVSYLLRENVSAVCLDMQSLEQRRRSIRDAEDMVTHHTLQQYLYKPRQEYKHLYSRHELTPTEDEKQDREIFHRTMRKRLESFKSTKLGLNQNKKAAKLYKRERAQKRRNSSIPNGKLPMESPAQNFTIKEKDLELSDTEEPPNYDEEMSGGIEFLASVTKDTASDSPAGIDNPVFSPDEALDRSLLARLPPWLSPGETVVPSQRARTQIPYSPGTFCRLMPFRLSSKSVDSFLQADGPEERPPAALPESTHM
In short: as §1

[1] = test system: absorption of sodium from the intestinal lumen; experiment: Inhibition of intestinal sodium absorption: urinary sodium (uNa) 16 h after single oral dose in rats; assay type: in vivo, rat; conditions: oral gavage, 16 h post-dose
In short: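 Urinary sodium mass over the 16 h after one oral gavage dose, measured by cation-exchange ion chromatography, reported as percent of water-vehicle group; ANOVA plus Dunnett's post hoc test. Groups of six 8-week-old Sprague-Dawley rats, housed individually in metabolic cages post-dose, fed and watered freely.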

[2] = test system: absorption of sodium from the intestinal lumen; experiment: Fecal form score (FFS) 16 h after oral dose in rats; assay type: in vivo, rat; conditions: oral gavage, 16 h post-dose, scale 1-5
In short: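 Fecal form was scored at 16 h post-dose on a 1–5 wetness scale (normal pellet to liquid stream), with two independent observations averaged across six rats per group. Animals were 8-week-old Sprague-Dawley rats given test compound or water orally in the late afternoon and kept in metabolic cages.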

[3] = test system: phosphorus and calcium levels in the urine of rats; experiment: Urinary excretion of phosphate and calcium in rats (16 h overnight urine); assay type: in vivo, rat; conditions: rats, oral gavage, 16 h post-dose

T1 sequence (P26433 29-831): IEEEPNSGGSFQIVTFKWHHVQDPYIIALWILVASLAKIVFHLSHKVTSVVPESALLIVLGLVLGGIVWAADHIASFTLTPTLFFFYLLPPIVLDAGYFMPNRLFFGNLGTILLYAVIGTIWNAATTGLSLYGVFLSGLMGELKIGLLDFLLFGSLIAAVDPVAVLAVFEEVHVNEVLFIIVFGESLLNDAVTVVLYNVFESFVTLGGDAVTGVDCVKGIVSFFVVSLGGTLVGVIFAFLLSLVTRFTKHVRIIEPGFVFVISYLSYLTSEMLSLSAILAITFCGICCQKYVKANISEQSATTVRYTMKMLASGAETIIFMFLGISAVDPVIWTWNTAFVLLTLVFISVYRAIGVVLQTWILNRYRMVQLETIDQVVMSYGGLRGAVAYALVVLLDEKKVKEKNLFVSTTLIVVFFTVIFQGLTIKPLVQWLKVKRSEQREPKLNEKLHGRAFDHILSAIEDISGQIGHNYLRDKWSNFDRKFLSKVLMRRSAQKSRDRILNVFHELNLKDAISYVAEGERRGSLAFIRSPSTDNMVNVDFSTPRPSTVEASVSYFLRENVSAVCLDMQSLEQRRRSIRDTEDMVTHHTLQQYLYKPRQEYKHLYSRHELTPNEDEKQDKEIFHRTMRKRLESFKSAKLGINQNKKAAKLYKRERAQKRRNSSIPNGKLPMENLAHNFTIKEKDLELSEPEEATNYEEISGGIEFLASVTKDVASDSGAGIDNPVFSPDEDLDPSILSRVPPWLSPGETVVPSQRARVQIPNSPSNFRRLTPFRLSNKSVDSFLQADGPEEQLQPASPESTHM

SMILES	IC50 (Rat NHE3; read-out: Prompt Rat NHE3 pIC50 (converted)) [nM]	IC50 (Human NHE3; read-out: Prompt Human NHE3 pIC50 (converted)) [nM]	Urine Na % of control ([1]; dose 3 mg/kg) [%]	Fecal Form Score average ([2]; dose 3 mg/kg)	Urine P % of control ([3]; dose 3 mg/kg) [%]	Prompt Rat NHE3 pIC50 (Rat NHE3)	Prompt Human NHE3 pIC50 (Human NHE3)	Urine Na % of control ([1]; dose 1 mg/kg) [%]	Urine Na % of control ([1]; dose 2 mg/kg) [%]	Fecal Form Score average ([2]; dose 1 mg/kg)	Fecal Form Score average ([2]; dose 2 mg/kg)	Urine P % of control ([3]; dose 1 mg/kg) [%]	Urine P % of control ([3]; dose 2 mg/kg) [%]	Urine Na % of control ([1]; dose 10 mg/kg) [%]	Fecal Form Score average ([2]; dose 10 mg/kg)	Urine P % of control ([3]; dose 10 mg/kg) [%]
CC1Cc2c(Cl)cc(Cl)cc2[C@H](c2cccc(S(=O)(=O)NCCOCCOCCNC(=O)CCC(CCC(=O)NCCOCCOCCNS(=O)(=O)c3cccc([C@@H]4CN(C)Cc5c(Cl)cc(Cl)cc54)c3)(CCC(=O)NCCOCCOCCNS(=O)(=O)c3cccc([C@@H]4CN(C)Cc5c(Cl)cc(Cl)cc54)c3)NC(=O)N[C@@H](CC(=O)O)C(=O)O)c2)C1 (stereo partly drawn) [compound 145]	25.1	20	41	3	51	–	–	–	–	–	–	–	–	–	–	–
CN1Cc2c(Cl)cc(Cl)cc2[C@H](c2cccc(S(=O)(=O)N(CCO)CCOCCOCCNC(=O)NCCCN(CCCNC(=O)NCCOCCOCCN(CCO)S(=O)(=O)c3cccc([C@@H]4CN(C)Cc5c(Cl)cc(Cl)cc54)c3)CCCNC(=O)NCCOCCOCCN(CCO)S(=O)(=O)c3cccc([C@@H]4CN(C)Cc5c(Cl)cc(Cl)cc54)c3)c2)C1 [compound 146]	–	–	70	2	58	7.80	8.35	–	–	–	–	–	–	–	–	–
CN1Cc2c(Cl)cc(Cl)cc2[C@H](c2cccc(S(=O)(=O)NCCOCCOCCNC(=O)NCCCC(N)(CCCNC(=O)NCCOCCOCCNS(=O)(=O)c3cccc([C@@H]4CN(C)Cc5c(Cl)cc(Cl)cc54)c3)CCCNC(=O)NCCOCCOCCNS(=O)(=O)c3cccc([C@@H]4CN(C)Cc5c(Cl)cc(Cl)cc54)c3)c2)C1 [compound 147]	–	–	40	2	32	7.00	7.67	–	–	–	–	–	–	–	–	–
CN(C)[C@H]1Cc2c(Cl)cc(Cl)cc2[C@@H]1Oc1ccc(S(=O)(=O)NCCOCCOCCNC(=O)CCC(=O)NCCOCCOCCNS(=O)(=O)c2ccc(O[C@H]3c4cc(Cl)cc(Cl)c4C[C@@H]3N(C)C)cc2)cc1 [compound 148]	–	–	49	1	146	8.40	7.80	–	–	–	–	–	–	–	–	–
CN(C)[C@H]1Cc2c(Cl)cc(Cl)cc2[C@@H]1Oc1ccc(S(=O)(=O)NCCOCCOCCNC(=O)COCC(=O)NCCOCCOCCNS(=O)(=O)c2ccc(O[C@H]3c4cc(Cl)cc(Cl)c4C[C@@H]3N(C)C)cc2)cc1 [compound 149]	–	–	46	1	115	8.10	8.00	54	53	1	2	122	69	–	–	–
CN(C)[C@H]1Cc2c(Cl)cc(Cl)cc2[C@@H]1Oc1ccc(S(=O)(=O)NCCOCCOCCNC(=O)[C@H](O)[C@@H](O)C(=O)NCCOCCOCCNS(=O)(=O)c2ccc(O[C@H]3c4cc(Cl)cc(Cl)c4C[C@@H]3N(C)C)cc2)cc1 [compound 150]	–	–	73	1	74	8.60	8.00	–	–	–	–	–	–	12	1	159
CN(C)[C@H]1Cc2c(Cl)cc(Cl)cc2[C@@H]1Oc1ccc(S(=O)(=O)NCCOCCOCCNC(=O)C(C)(C)C(=O)NCCOCCOCCNS(=O)(=O)c2ccc(O[C@H]3c4cc(Cl)cc(Cl)c4C[C@@H]3N(C)C)cc2)cc1 [compound 151]	–	–	78	1	52	8.30	7.50	–	–	–	–	–	–	42	2	121
CN(C)[C@H]1Cc2c(Cl)cc(Cl)cc2[C@@H]1Oc1ccc(S(=O)(=O)NCCOCCOCCNC(=O)Nc2ccc(NC(=O)NCCOCCOCCNS(=O)(=O)c3ccc(O[C@H]4c5cc(Cl)cc(Cl)c5C[C@@H]4N(C)C)cc3)cc2)cc1 [compound 152]	–	–	–	–	–	<5.00	8.70	–	–	–	–	–	–	26	1	74
CN1Cc2c(Cl)cc(Cl)cc2[C@H](c2cccc(S(=O)(=O)NCCOCCOCCNC(=O)CCC(CCC(=O)NCCOCCOCCNS(=O)(=O)c3cccc([C@@H]4CN(C)Cc5c(Cl)cc(Cl)cc54)c3)(CCC(=O)NCCOCCOCCNS(=O)(=O)c3cccc([C@@H]4CN(C)Cc5c(Cl)cc(Cl)cc54)c3)NC(=O)Cn3ccnc3)c2)C1 [compound 154]	–	–	112	1	65	6.80	6.80	–	–	–	–	–	–	–	–	–
CN1Cc2c(Cl)cc(Cl)cc2[C@H](c2cccc(S(=O)(=O)NCCOCCOCCNC(=O)NCCCC(CCCNC(=O)NCCOCCOCCNS(=O)(=O)c3cccc([C@@H]4CN(C)Cc5c(Cl)cc(Cl)cc54)c3)(CCCNC(=O)NCCOCCOCCNS(=O)(=O)c3cccc([C@@H]4CN(C)Cc5c(Cl)cc(Cl)cc54)c3)NC(=O)CCC(=O)O)c2)C1 [compound 155]	–	–	40	2	44	7.70	7.90	–	–	–	–	–	–	–	–	–
CN1Cc2c(Cl)cc(Cl)cc2[C@H](c2cccc(S(=O)(=O)NCCOCCOCCNC(=O)CCC(CCC(=O)NCCOCCOCCNS(=O)(=O)c3cccc([C@@H]4CN(C)Cc5c(Cl)cc(Cl)cc54)c3)(CCC(=O)NCCOCCOCCNS(=O)(=O)c3cccc([C@@H]4CN(C)Cc5c(Cl)cc(Cl)cc54)c3)NC(=O)Cc3nnn[nH]3)c2)C1 [compound 156]	–	–	13	3	67	6.70	7.20	–	–	–	–	–	–	–	–	–
CN1Cc2c(Cl)cc(Cl)cc2[C@H](c2cccc(S(=O)(=O)NCCOCCOCCNC(=O)CCC(CCC(=O)NCCOCCOCCNS(=O)(=O)c3cccc([C@@H]4CN(C)Cc5c(Cl)cc(Cl)cc54)c3)(CCC(=O)NCCOCCOCCNS(=O)(=O)c3cccc([C@@H]4CN(C)Cc5c(Cl)cc(Cl)cc54)c3)NC(=O)NCCS(=O)(=O)O)c2)C1 [compound 157]	–	–	26	3	50	7.70	7.77	–	–	–	–	–	–	–	–	–
